Results: patent publication US20240382510A1, “NEW COMBINATION DRUG FOR TREATING CORONAVIRUS INFECTIONS, PHARMACEUTICAL COMPOSITION AND USE THEREOF” (priority 2021, published 2024)
Like-named read-outs stand apart in the source and are kept apart here.

Experiments:
[1] = rats
Method: Among them, group 4 was converted according to the clinical administration of 3 tablets, and the remaining experimental groups were converted according to the clinical administration of 4 tablets.
A single dose was administered to healthy SD rats, and blood was taken according to the blood collection plan. After sample processing, analysis, and data processing, the plasma concentration-time curves of each group were drawn respectively. The pharmacokinetic parameters of each group of medicines in rats was calculate by WinNonlin 6.1 software.

[2] = in vivo; format: in vitro ADME; settings: plasma
Text: In addition, due to the high plasma protein binding rate of atovaquone and nitazoxanide, both about 99% (refer to Beerahee M Clinical pharmacology of atovaquone and proguanil hydrochloride. [J]. Journal of Travel Medicine, 1999, 6 suppl 1:S13-7.; Alinia™ PRESCRIBING INFORMATION-FDA.). The present application also studied and compared the in vivo plasma protein binding rate of atovaquone and nitazoxanide combined administration and separate administration. […] Compared with alone administration, combined administration will not affect the distribution and elimination of the two drugs in vivo, and competition for plasma protein binding site by one drug will not result in an increase in the free form of another drug.

[3] = test system: SARS-CoV-2 (hCoV-19/China/CAS-B001/2020); experiment: Synergistic anti-SARS-CoV-2 activity (Example 4), CPE in Vero-E6 cells; format: cell-based; settings: Severe acute respiratory syndrome coronavirus 2, Vero C1008; wild strain hCoV-19/China/CAS-B001/2020, Vero-E6, CPE after 72 hours
[4] = literature (Beerahee 1999; Alinia prescribing information); cited from earlier work
[5] = test system: SARS-CoV-2; settings: anti-SARS-CoV-2, literature values; cited from earlier work
[6] = literature values; cited from earlier work
[7] = atovaquone combined with nitazoxanide, read-out: average plasma protein binding rate, combined administration group (converted)
[8] = separate administration, read-out: average plasma protein binding rate, separate administration group (converted)

| SMILES | exposure level (AUC0-24h) administered alone compared with combination at the same dose ([1]; single dose) | plasma concentration trend at 16-24 hours, administered alone ([1]; single dose) | plasma concentration trend at 16-24 hours, combined administration ([1]; single dose) | fraction unbound [2, 7] | fraction unbound [2, 8] | EC50 [3] [nM] | plasma protein binding rate [4] | EC50 [5] [nM] | Plasma concentration [6] [nM] | plasma concentration administered alone vs in combination at the same dose ([1]; single dose 46.6 mg/kg, group 1 vs group 5) | plasma concentration administered alone vs in combination, within 0.5-4 hours after administration ([1]; 13.9 mg/kg, group 3 vs group 5 and group 4) |
| --- | --- | --- | --- | --- | --- | --- | --- | --- | --- | --- | --- |
| O=C1C(O)=C([C@H]2CC[C@H](c3ccc(Cl)cc3)CC2)C(=O)c2ccccc21 [ATQ, 2-(trans-4-(4-chlorophenyl)cyclohexyl)-3-hydroxy-1,4-naphthalenedione] | similar | downward trend | flat or rising trend | 0.0014 | 0.0016 | 2040 | about 99% | – | – | – | – |
| CC(C)C(=O)OC[C@H]1O[C@@H](n2ccc(NO)nc2=O)[C@H](O)[C@@H]1O [Molnupiravir] | – | – | – | – | – | – | – | 320 to 2030 | 2090 | – | – |
| CC(=O)Oc1ccccc1C(=O)Nc1ncc([N+](=O)[O-])s1 [NTZ, o-[N-(5-nitro-1,3-thiazol-2-yl)carbamoyl]phenol acetate] | – | – | – | 0.0016 | 0.0105 | 4900 | about 99% | – | – | no obvious difference | – |
| NC(=O)c1ncn([C@@H]2O[C@H](CO)[C@@H](O)[C@H]2O)n1 [RBV, 1-[(2R,3R,4S,5R)-3,4-dihydroxy-5-(hydroxymethyl)Oxolane-2-yl]-1H-1,2,4-triazole-3-carboxamide] | slightly greater | – | – | – | – | – | – | – | – | – | greater |
